Data from article PMC7155171, “Probing the Open Global Health Chemical Diversity Library for Multistage-Active Starting Points for Next-Generation Antimalarials” (ACS Infectious Diseases, 2020).
Like-named read-outs stand apart in the source and are kept apart here.

Tests used:
P. falciparum Dd2 = experiment: SYBR green I asexual blood stage proliferation assay (96 h); assay type: cell-based, Plasmodium falciparum; settings: for IC50 / Emax: Plasmodium falciparum
[1] = system: P. falciparum Dd2 (PfLuc) line expressing firefly luciferase, asexual blood stage; experiment: microbe, parasite or virus in culture; assay type: cell-based, Plasmodium falciparum; settings: Plasmodium falciparum
[2] = DD2, Sybr Green I, 11-pt dose response, 96hr, read-out: CDD P. falciparum Sybr Green I ABS 11-pt Reconfirmation Dose Response (96hr): IC50
[3] = DD2, read-out: CDD P. falciparum Luciferase ABS 11-pt Reconfirmation Dose Response (48hr): IC50 (μM), 11-pt dose response, 48hr
[4] = DD2, 8-pt dose response, 96hr, read-out: CDD P. falciparum Luciferase ABS 8-pt Reconfirmation Dose Response (96hr): IC50
[5] = DD2, 8-pt dose response, 96hr, read-out: CDD P. falciparum Luciferase ABS 8-pt Reconfirmation Dose Response (96hr): Maximum inhibition (%)
[6] = DD2, 11-pt dose response, 48hr, read-out: CDD P. falciparum Luciferase ABS 11-pt Reconfirmation Dose Response (48hr): Maximum inhibition (%)
[7] = DD2, 11-pt dose response, 96hr, read-out: CDD P. falciparum Luciferase ABS 11-pt Reconfirmation Dose Response (96hr): IC50
[8] = DD2, 11-pt dose response, 96hr, read-out: CDD P. falciparum Luciferase ABS 11-pt Reconfirmation Dose Response (96hr): Maximum inhibition (%)
[9] = DD2, Sybr Green I, 11-pt dose response, 96hr, read-out: CDD P. falciparum Sybr Green I ABS 11-pt Reconfirmation Dose Response (96hr): Maximum inhibition (%)
[10] = DD2, 11-pt dose response, 96hr, read-out: P. falciparum Sybr Green I ABS 11-pt Reconfirmation Dose Response (96hr): IC50
[11] = DD2, 11-pt dose response, 96hr, read-out: P. falciparum Sybr Green I ABS 11-pt Reconfirmation Dose Response (96hr): Maximum inhibition (%)
[12] = DD2, read-out: P. falciparum Luciferase ABS 11-pt Reconfirmation Dose Response (48hr): IC50, 11-pt dose response, 48hr
[13] = DD2, 8-pt dose response, 96hr, read-out: P. falciparum Luciferase ABS 8-pt Reconfirmation Dose Response (96hr): IC50
[14] = DD2, 8-pt dose response, 96hr, read-out: P. falciparum Luciferase ABS 8-pt Reconfirmation Dose Response (96hr): Maximum inhibition (%)
[15] = DD2, 11-pt dose response, 48hr, read-out: P. falciparum Luciferase ABS 11-pt Reconfirmation Dose Response (48hr): Maximum inhibition (%)
[16] = DD2, 11-pt dose response, 96hr, read-out: P. falciparum Luciferase ABS 11-pt Reconfirmation Dose Response (96hr): IC50
[17] = DD2, 11-pt dose response, 96hr, read-out: P. falciparum Luciferase ABS 11-pt Reconfirmation Dose Response (96hr): Maximum inhibition (%)

Structure (SMILES) | IC50 (P. falciparum Dd2; [2]) | IC50 [1, 3] | IC50 [1, 4] | Emax [1, 5] | Emax [1, 6] | IC50 [1, 7] | Emax [1, 8] | Emax (P. falciparum Dd2; [9]) | further results
Fc1cccc(CN2C[C@@H]3CN(Cc4ccccn4)C[C@@H]3C2)c1 [DDD01029091] | 2.34 µM | 1.16 µM | 0.62 µM | 95.3% | 94% | 0.354 µM | 100% |  | 
Cc1ccnc(NC(=O)c2[nH]nc(C(C)C)c2Br)c1 [DDD01298775] | 8.74 µM | 3.6 µM | 0.39 µM | 91.3% | 93% | 1.39 µM | 97% | 51.2% | 
CC(C)[C@@H]1CN(C(=O)C2(c3ccccc3)CCN(C)CC2)C[C@H]1N(C)C [DDD01249452] | 3.27 µM | 6.23 µM | 0.83 µM | 90.5% |  | 2.18 µM | 95.6% | 87.8% | 
CC(NCC1CCN(CCO)CC1)c1cccc(Cl)c1 (stereo not shown) [DDD01073717] | 1.32 µM | 3.01 µM | 0.56 µM | 94.9% | 93.9% | 0.988 µM | 99.8% | 92.1% | 
CCC(C)(C)n1nnnc1C(c1cccs1)N1CCc2ccccc2C1 (stereo not shown) [DDD01056726] | 4.96 µM | 3.18 µM | 0.56 µM | 91.1% | 71.7% | 0.803 µM | 93.7% | 79.3% | 
NC(=O)CN1CCC(Nc2ccnc3ccc(Cl)cc23)CC1 [DDD01078433] | 1.02 µM | 1.98 µM | 0.96 µM |  | 99.5% | 1.05 µM | 100% | 98.2% | 
O=C(C1CNCCO1)N1CCCC(c2ccccc2)(c2ccccc2)C1 (stereo not shown) [DDD01252287] |  |  |  |  |  |  |  |  | IC50 (P. falciparum Dd2; [10]): 5.76 µM; Emax (P. falciparum Dd2; [11]): 58.4%; IC50 [1, 12]: 6.95 µM; IC50 [1, 13]: 2.21 µM; Emax [1, 14]: 80.7%; Emax [1, 15]: 53.2%; IC50 [1, 16]: 2.05 µM; Emax [1, 17]: 83.1%
Cc1ccccc1CNCc1cc(Cl)ccc1O [DDD01038246] | 2.6 µM | 11 µM | 0.64 µM | 92.4% | 69.3% | 5.6 µM | 89.5% | 97.5% | 
CC(O)CN1CCC(CNCc2cccc(OC(F)(F)F)c2)CC1 (stereo not shown) [DDD01297560] | 2.94 µM | > 12.5 µM | 1.04 µM | 91% | 58.6% | 5.4 µM | 87.8% | 91.2% | 
Oc1ccc(Cl)cc1CNCc1cccc(C(F)(F)F)c1 [DDD01038245] | 3.03 µM | > 4.16 µM | 0.82 µM | 91.9% | 64% | 10.6 µM | 79.2% | 95.3% | 
CN(Cc1cc(Cl)cc2cccnc12)CC1CCN(CCO)CC1 [DDD01063807] | 0.584 µM | 2.2 µM | 0.36 µM | 94.1% | 97.5% | 1.42 µM | 100% | 95.8% | 
COc1ccc(-c2ccccc2CCN)c(OC)c1OC [DDD01256178] | 3.03 µM | 3.3 µM | 1 µM | 87.9% | 83.2% | 2.11 µM | 98.8% | 89.5% | 
CC(C)(C)c1nccc(C2(c3ccccc3Cl)CCNCC2)n1 [DDD01256872] |  |  |  |  |  |  |  |  | IC50 (P. falciparum Dd2; [10]): 1.71 µM; Emax (P. falciparum Dd2; [11]): 74.4%; IC50 [1, 12]: 5.56 µM; IC50 [1, 13]: 2.03 µM; Emax [1, 14]: 78.8%; Emax [1, 15]: 91.9%; IC50 [1, 16]: 1.22 µM; Emax [1, 17]: 98.3%
COCCOc1ccccc1CNCC1COC2(CCCC2)O1 (stereo not shown) [DDD01074854] |  |  |  |  |  |  |  |  | IC50 (P. falciparum Dd2; [10]): 2.13 µM; Emax (P. falciparum Dd2; [11]): 71.9%; IC50 [1, 12]: > 12.5 µM; IC50 [1, 13]: 1.89 µM; Emax [1, 14]: 84.3%; Emax [1, 15]: 29.8%; IC50 [1, 16]: 2.71 µM; Emax [1, 17]: 75.6%
OC1(c2ccc(F)cc2)CCN(Cc2ccccc2N2CCCC2)CC1 [DDD01058479] |  |  |  |  |  |  |  |  | IC50 (P. falciparum Dd2; [10]): 5.91 µM; Emax (P. falciparum Dd2; [11]): 82.4%; IC50 [1, 12]: 3.24 µM; IC50 [1, 13]: 1.38 µM; Emax [1, 14]: 88.9%; Emax [1, 15]: 76.5%; IC50 [1, 16]: 1.95 µM; Emax [1, 17]: 94.3%
Cc1ccc(Oc2cc(F)ccc2O[C@@H]2CCC[C@@H](N)[C@H]2O)cc1 [DDD01059749] | 2.27 µM | 2.7 µM | 0.54 µM | 92.7% | 98% | > 1.39 µM | 100% | 95.9% | 
COc1cc(CNCC(O)c2cccc(F)c2)cc2c1OCO2 (stereo not shown) [DDD01296688] | 4.84 µM | 3.64 µM | 0.82 µM |  | 88.9% | 1.77 µM | 98.5% | 88.3% | 
Cc1cc2nc(-c3cn(C4CCNCC4)nn3)[nH]c2cc1C [DDD01250700] | 3.23 µM | 2.08 µM | 0.34 µM | 95.8% | 61.5% | 1.01 µM | 98.7% | 82% | 
Cc1ccc(CNC(C)c2cc(F)ccc2N2CCN(C)CC2)o1 (stereo not shown) [DDD01061881] | 2.42 µM | 3.93 µM | 0.41 µM | 90.7% | 87.5% | 2.12 µM | 97.7% |  | 
CCN1CCC2(CC1)CC(NCc1ccncc1)c1ccccc1O2 (stereo not shown) [DDD01034171] | > 4.16 µM | > 12.5 µM | 0.75 µM | 87.7% | 61.8% | 3.05 µM | 86% | 74% | 
Clc1cccc2c3c([nH]c12)CCN(Cc1cc2n(n1)CCCNC2)C3 [DDD01255494] |  |  |  |  |  |  |  |  | IC50 (P. falciparum Dd2; [10]): 3.52 µM; Emax (P. falciparum Dd2; [11]): 91%; IC50 [1, 12]: 3.79 µM; IC50 [1, 13]: 1.21 µM; Emax [1, 14]: 91.2%; IC50 [1, 16]: 1.07 µM; Emax [1, 17]: 99.6%
CC1CCCCN1C(=O)c1coc(COc2cccc3cnccc23)n1 (stereo not shown) [DDD01245028] | 0.568 µM | 0.751 µM | 0.61 µM | 94% | 97% | 0.469 µM | 99.8% | 97.7% | 
CC(N)Cc1ccccc1Sc1ccccc1 (stereo not shown) [DDD01035540] |  |  |  |  |  |  |  |  | IC50 (P. falciparum Dd2; [10]): 4.17 µM; Emax (P. falciparum Dd2; [11]): 86.1%; IC50 [1, 12]: 3.57 µM; IC50 [1, 13]: 1.63 µM; Emax [1, 14]: 92%; Emax [1, 15]: 89.6%; IC50 [1, 16]: 0.558 µM; Emax [1, 17]: 98.2%
COCCN(C)Cc1cc(Cl)ccc1OCC(O)CN1CCCCCC1 (stereo not shown) [DDD01254091] |  |  |  |  |  |  |  |  | IC50 (P. falciparum Dd2; [10]): 3.77 µM; Emax (P. falciparum Dd2; [11]): 91.7%; IC50 [1, 12]: 3 µM; IC50 [1, 13]: 1.11 µM; Emax [1, 14]: 94.7%; Emax [1, 15]: 98.3%; IC50 [1, 16]: > 1.39 µM; Emax [1, 17]: 101%
CC(O)CN1CCC(CNCc2cccc(Br)c2)CC1 (stereo not shown) [DDD01304344] | 2.06 µM | 3.63 µM | 0.58 µM | 91.2% | 92.1% | 1.64 µM | 98.2% | 93.8% | 
Cc1cc(CN2CCc3nc(-c4ccncc4)nc(O)c3CC2)c(C)s1 [DDD01058881] |  |  |  |  |  |  |  |  | IC50 (P. falciparum Dd2; [10]): 6.28 µM; Emax (P. falciparum Dd2; [11]): 78.2%; IC50 [1, 12]: 9.43 µM; IC50 [1, 13]: 1.72 µM; Emax [1, 14]: 88.5%; Emax [1, 15]: 79%; IC50 [1, 16]: 2.93 µM; Emax [1, 17]: 93.4%
CN(Cc1ncc[nH]1)c1nc(-c2ccccn2)nc2c1CCNCC2 [DDD01254777, CN(Cc1ncc[nH]1)c1nc(nc2CCNCCc12)-c1ccccn1] |  |  |  |  |  |  |  |  | CDD P. falciparum Sybr Green I ABS Dd2 Dose Response: Maximum measured (%) (P. falciparum Dd2; Dd2, 96 h): 65.7%; IC50 (P. falciparum Dd2; DD2, 96 h, read-out: CDD P. falciparum Sybr Green I ABS Dd2 Dose Response: IC50): > 4.16 µM; IC50 ([1]; DD2, read-out: CDD P. falciparum Luc 11pt dose response (96hr, n=2): IC50 (μM), 96hr, 11-point, n=2): 0.214 µM; IC50 ([1]; DD2, read-out: CDD P. falciparum Luciferase 11pt dose response (48hr, n=2): IC50 (μM), 48hr, 11-point, n=2): 10.2 µM; Emax ([1]; DD2, 48hr, 11-point, read-out: CDD P. falciparum Luciferase ABS 11-pt Reconfirmation Dose Response (48hr): Maximum inhibition (%)): 65.1%; Emax ([1]; DD2, 96hr, 11-point, read-out: CDD P. falciparum Luciferase ABS 11-pt Reconfirmation Dose Response (96hr): Maximum inhibition (%)): 94.2%; IC50 ([1]; 96 h incubation, Dd2 luciferase, read-out: 96 hour Pfluc IC50): 0.21 µM
Cc1ccc(C(CCNCCCN(C)C)C2CCOC(C)(C)C2)cc1 (stereo not shown) [DDD01026662] | 1.57 µM | 7.59 µM | 0.76 µM | 96.2% | 95.3% | 5.89 µM | 98.8% | 97.5% | 
